According to PubChem BioAssay (NCI):
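Tested at 5 concentrations; 48 h exposure; 96-well plates; endpoints linearly interpolated, else capped at highest concentration. TGI: concentration producing complete growth inhibition.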

What was measured:
Assay in all cases: NCI anticancer screen, dose series, 48 h
[1] = test system: 786-0 renal
[2] = test system: A549 NSCLC
[3] = test system: ACHN renal
[4] = test system: CAKI-1 renal
[5] = test system: DMS 114 small cell lung
[6] = test system: EKVX NSCLC
[7] = test system: HCC-2998 colon
[8] = test system: HCT-116 colon
[9] = test system: HCT-15 colon
[10] = test system: HL-60(TB) leukemia
[11] = test system: HOP-62 NSCLC
[12] = test system: HOP-92 NSCLC
[13] = test system: IGROV1 ovarian
[14] = test system: K-562 leukemia
[15] = test system: KM12 colon
[16] = test system: KM20L2 colon
[17] = test system: LOX IMVI melanoma
[18] = test system: LXFL 529 NSCLC
[19] = test system: M14 melanoma
[20] = test system: MALME-3M melanoma
[21] = test system: MOLT-4 leukemia
[22] = test system: NCI-H226 lung
[23] = test system: NCI-H23 lung
[24] = test system: OVCAR-3 ovarian
[25] = test system: OVCAR-4 ovarian
[26] = test system: OVCAR-5 ovarian
[27] = test system: RXF 393 renal
[28] = test system: SF-268 CNS
[29] = test system: SK-MEL-2 melanoma
[30] = test system: SK-MEL-5 melanoma
[31] = test system: SK-OV-3 ovarian
[32] = test system: SN12C renal
[33] = test system: SNB-19 CNS
[34] = test system: SNB-75 CNS
[35] = test system: SNB-78 CNS
[36] = test system: SW-620 colon
[37] = test system: TK-10 renal
[38] = test system: U251 CNS
[39] = test system: UACC-62 melanoma
[40] = test system: UO-31 renal
[41] = test system: BT-549 breast
[42] = test system: CCRF-CEM leukemia
[43] = test system: COLO 205 colon
[44] = test system: DU-145 prostate
[45] = test system: HS 578T breast
[46] = test system: HT29 colon
[47] = test system: MCF7 breast
[48] = test system: MDA-MB-231 breast
[49] = test system: MDA-MB-435
[50] = test system: MDA-N
[51] = test system: NCI-H522 lung
[52] = test system: NCI/ADR-RES ovarian
[53] = test system: OVCAR-8 ovarian
[54] = test system: PC-3 prostate
[55] = test system: RPMI-8226 leukemia
[56] = test system: SF-295 CNS
[57] = test system: SF-539 CNS
[58] = test system: SK-MEL-28 melanoma
[59] = test system: SR leukemia
[60] = test system: T-47D breast
[61] = test system: UACC-257 melanoma
[62] = test system: A498 renal
[63] = test system: NCI-H460 lung
[64] = test system: DLD-1 colon
[65] = test system: DMS 273 small cell lung
[66] = test system: HOP-18 NSCLC
[67] = test system: M19-MEL melanoma

Structure (SMILES): Cc1ccccc1C(=O)C1CCCCC1O (stereo not given)
- TGI [1]: > 100 µM
- TGI [2]: > 100 µM
- TGI [3]: > 100 µM
- TGI [4]: > 100 µM
- TGI [5]: > 100 µM
- TGI [6]: > 100 µM
- TGI [7]: > 100 µM
- TGI [8]: > 100 µM
- TGI [9]: > 100 µM
- TGI [10]: > 100 µM
- TGI [11]: > 100 µM
- TGI [12]: > 100 µM
- TGI [13]: > 100 µM
- TGI [14]: > 100 µM
- TGI [15]: > 100 µM
- TGI [16]: > 100 µM
- TGI [17]: > 100 µM
- TGI [18]: > 100 µM
- TGI [19]: > 100 µM
- TGI [20]: > 100 µM
- TGI [21]: > 100 µM
- TGI [22]: > 100 µM
- TGI [23]: > 100 µM
- TGI [24]: > 100 µM
- TGI [25]: > 100 µM
- TGI [26]: > 100 µM
- TGI [27]: > 100 µM
- TGI [28]: > 100 µM
- TGI [29]: > 100 µM
- TGI [30]: > 100 µM
- TGI [31]: > 100 µM
- TGI [32]: > 100 µM
- TGI [33]: > 100 µM
- TGI [34]: > 100 µM
- TGI [35]: > 100 µM
- TGI [36]: > 100 µM
- TGI [37]: > 100 µM
- TGI [38]: > 100 µM
- TGI [39]: > 100 µM
- TGI [40]: > 100 µM

Structure (SMILES): O=c1[nH]c2nc3ccccc3c(=O)n2/c1=C/c1ccco1
- TGI [1]: > 100 µM
- TGI [2]: > 100 µM
- TGI [3]: > 100 µM
- TGI [41]: > 100 µM
- TGI [4]: > 100 µM
- TGI [42]: > 100 µM
- TGI [43]: > 100 µM
- TGI [44]: > 100 µM
- TGI [6]: > 100 µM
- TGI [7]: > 100 µM
- TGI [8]: > 100 µM
- TGI [9]: > 100 µM
- TGI [10]: > 100 µM
- TGI [11]: > 100 µM
- TGI [12]: > 100 µM
- TGI [45]: > 100 µM
- TGI [46]: > 100 µM
- TGI [13]: > 100 µM
- TGI [14]: > 100 µM
- TGI [15]: > 100 µM
- TGI [17]: > 100 µM
- TGI [19]: > 100 µM
- TGI [20]: > 100 µM
- TGI [47]: > 100 µM
- TGI [48]: > 100 µM
- TGI [49]: > 100 µM
- TGI [50]: > 100 µM
- TGI [21]: > 100 µM
- TGI [22]: > 100 µM
- TGI [23]: > 100 µM
- TGI [51]: > 100 µM
- TGI [52]: > 100 µM
- TGI [24]: > 100 µM
- TGI [25]: > 100 µM
- TGI [26]: > 100 µM
- TGI [53]: > 100 µM
- TGI [54]: > 100 µM
- TGI [55]: > 100 µM
- TGI [28]: > 100 µM
- TGI [56]: > 100 µM
- TGI [57]: > 100 µM
- TGI [29]: > 100 µM
- TGI [58]: > 100 µM
- TGI [30]: > 100 µM
- TGI [31]: > 100 µM
- TGI [32]: > 100 µM
- TGI [33]: > 100 µM
- TGI [34]: > 100 µM
- TGI [59]: > 100 µM
- TGI [36]: > 100 µM
- TGI [60]: > 100 µM
- TGI [37]: > 100 µM
- TGI [38]: > 100 µM
- TGI [61]: > 100 µM
- TGI [39]: > 100 µM
- TGI [40]: > 100 µM

Structure (SMILES): CCc1ccc2c(c1)N(CC(C)CN(C)C)c1ccccc1S2 (stereo not given)
- TGI [1]: 12.2 µM
- TGI [62]: 21.8 µM
- TGI [2]: 21.7 µM
- TGI [3]: 15.5 µM
- TGI [41]: 26.5 µM
- TGI [4]: 18.3 µM
- TGI [42]: 4.99 µM
- TGI [43]: 8.47 µM
- TGI [44]: 21.4 µM
- TGI [6]: 24.3 µM
- TGI [8]: 11 µM
- TGI [9]: 17.8 µM
- TGI [10]: 8.66 µM
- TGI [11]: 17.8 µM
- TGI [12]: 15.4 µM
- TGI [45]: 18.6 µM
- TGI [46]: 12.5 µM
- TGI [13]: 15 µM
- TGI [14]: 3.5 µM
- TGI [15]: 16.6 µM
- TGI [17]: 10.3 µM
- TGI [19]: 4.12 µM
- TGI [20]: 8.37 µM
- TGI [47]: 11.5 µM
- TGI [48]: 17.3 µM
- TGI [49]: 8.13 µM
- TGI [50]: 17.4 µM
- TGI [21]: 1.91 µM
- TGI [22]: 25.5 µM
- TGI [23]: 21.8 µM
- TGI [63]: 8.51 µM
- TGI [51]: 7.96 µM
- TGI [52]: 17.8 µM
- TGI [24]: 12.4 µM
- TGI [25]: 17 µM
- TGI [26]: 19.9 µM
- TGI [53]: 21.8 µM
- TGI [54]: 17.1 µM
- TGI [55]: 6.28 µM
- TGI [27]: 10.3 µM
- TGI [28]: 20.5 µM
- TGI [56]: 21.5 µM
- TGI [57]: 24.1 µM
- TGI [29]: 12 µM
- TGI [58]: 5.45 µM
- TGI [30]: 8.1 µM
- TGI [31]: 18.7 µM
- TGI [32]: 19.5 µM
- TGI [33]: 23 µM
- TGI [34]: 9.94 µM
- TGI [59]: 11.4 µM
- TGI [36]: 14.6 µM
- TGI [60]: 10.7 µM
- TGI [37]: 11.4 µM
- TGI [38]: 17.4 µM
- TGI [61]: 7.19 µM
- TGI [39]: 13.1 µM
- TGI [40]: 10.3 µM

Structure (SMILES): O=Cc1ccc2c(c1I)OCO2
- TGI [1]: > 100 µM
- TGI [62]: > 100 µM
- TGI [2]: > 100 µM
- TGI [3]: > 100 µM
- TGI [4]: > 100 µM
- TGI [42]: > 100 µM
- TGI [43]: > 100 µM
- TGI [64]: > 100 µM
- TGI [65]: > 100 µM
- TGI [6]: > 100 µM
- TGI [7]: > 100 µM
- TGI [8]: > 100 µM
- TGI [9]: > 100 µM
- TGI [10]: > 100 µM
- TGI [66]: > 100 µM
- TGI [11]: > 100 µM
- TGI [46]: > 100 µM
- TGI [13]: > 100 µM
- TGI [14]: > 100 µM
- TGI [15]: > 100 µM
- TGI [16]: > 100 µM
- TGI [17]: > 100 µM
- TGI [19]: > 100 µM
- TGI [67]: > 100 µM
- TGI [20]: > 100 µM
- TGI [21]: > 100 µM
- TGI [22]: > 100 µM
- TGI [23]: > 100 µM
- TGI [63]: > 100 µM
- TGI [51]: > 100 µM
- TGI [24]: > 100 µM
- TGI [25]: > 100 µM
- TGI [26]: > 100 µM
- TGI [53]: > 100 µM
- TGI [55]: > 100 µM
- TGI [56]: > 100 µM
- TGI [57]: > 100 µM
- TGI [29]: > 100 µM
- TGI [30]: > 100 µM
- TGI [31]: > 100 µM
- TGI [32]: > 100 µM
- TGI [33]: > 100 µM
- TGI [34]: > 100 µM
- TGI [35]: > 100 µM
- TGI [59]: > 100 µM
- TGI [36]: > 100 µM
- TGI [37]: > 100 µM
- TGI [38]: > 100 µM
- TGI [61]: > 100 µM
- TGI [39]: > 100 µM
- TGI [40]: > 100 µM
